The values below come from patent US20060111289A1, “Compositions and methods of using Alpha-fetoprotein growth inhibitory peptides” (Serometrix, LLC,, priority 2004, published 2006).

Where a SMILES comes first, the peptide text is derived from it.

The test system of experiment [1] is three human cancer cell lines (breast, prostate, or kidney). Description: Sulforhodamine cytostatic 6-day assay, cyclic versus linear peptide. It counts as cell-based. The settings on record: linear versus cyclic configuration. As for the experimental part:
FIG. 3 presents exemplary data showing the growth suppressive activities of the oligomeric forms of P149, cyclic versus linear, are depicted in various in vitro and in vivo models. Biological activity was determined by three growth-dependent bioassays, namely; • Panel-A and A1) an immature rodent uterine bioassay; • Panel-B and B 1) an in vitro MCF-7 foci assay; • Panel-C and C1) an in vitro tumor cell cytostatic assessment. […] See text for details. Scrambled peptide=P327.
GIP is a major participant in tumor cell surface interactions. GIP is a potent suppressor of tumor proliferation in both rodent and human cell models. GIP's biological activity is dependent on its oligomeric state, specifically its trimer (linear) versus monomer (cyclic) configuration. Biological activity was determined by three growth-dependent bioassays, namely, i) an immature rodent uterine assay; ii) an in vitro MCF-7 foci assay; and iii) an in vitro cytostatic assessment. […]
The cyclic form of GIP constitutes a disulfide-bridged monomer in solution, whereas GIP in the linear configuration is known to exist as an oligomeric trimer. […] Using three different human cancer cell lines (breast, prostate, or kidney) it was readily demonstrable that the monomeric cyclic form of the peptide produced 80-90% growth inhibition over a range of 10^−5 M to 10^−7 M when the sulforhodamine cytostatic 6-day assay was employed. […]

Experiment [2] relates to MCF-7 and 6WI-1 tumor cells. The experiment can be described thus: Tumor cell adhesion to ECM proteins in microtiter plates. It counts as cell-based, human, murine. As for the experimental part: FIG. 8 presents exemplary data showing the inhibition of P149 in the cellular adhesion of cancer cells to extracellular matrix (ECM) proteins for both human MCF-7 breast cancer cells and for murine 6WI-1 ascites-adapted mammary tumor cells. The cellular adhesion assay was performed in 96-well microtiter plates (Nunc Company, Denmark, catalog #263339) and the wells were pre-coated with 100 microliters of each of the above-mentioned ECM proteins for 24 hours as previously determined. After adding tumor cells, the plates were then incubated at 37° C. for various times; while 6WI-1 cells usually required only 2-4 hours incubation for adhesion; MCF-7 cells required 24 hours for attachment following trypsinization. For both cell lines, the cell culture media contained 5% calf serum to ensure cell attachment. The plates were washed twice with Hank's Saline, fixed in 0.5 mL of 37% formaldehyde, stained with crystal violet and read at […] on a microplate reader. Inset: Using a CyQUANT® stain kit, (Hoechst Corp., Germany) the plates were first exposed to a freeze/thaw cycle at −70° C. for 24 hours and 37° C. for 10 minutes. CyQUANT® buffer solution (150 microliters) was added to each well, and the cell adhesion was measured by fluorescence spectroscopy and quantitated using an ImageQuant® plate scanner (Fluorimager 595, Molecular Dynamics, Sunnyvale, Calif.).
This attachment of GIP was a slightly weaker adhesion matrix than was gelatin, chondroitin sulfate, and poly-lysine which approximated 30-35%. Using P149, the optimal amount of peptide required to inhibit tumor cell adhesion was determined by absorbing soluble peptide (1.0 pg to 100 μg) to the walls of microtiter plates. A constant number of MCF-7 tumor cells (i.e., for example, 1×10^5) were then added to the microtiter well and adhesion quantitated by fluorescence. […] The quantitation of MCF-7 and 6WI-1 cell adhesion in the presence of peptide versus peptide-free media was then determined on ECM-coated microtiter plates using 3 μg GIP/well as a competitive inhibitor. The P149 peptide was added to the wells immediately after the cells were dispensed and then the mixture was incubated as described. The AFP peptide was capable of cell adhesion inhibition in most of the ECM proteins in both tumor cell lines. Inhibition of mouse and human tumor cell adhesion was somewhat equivalent using collagen IV, fibrinogen, fibronectin, and thrombospondin. […] Thus, the GIP was found capable of eliciting different attachment inhibitions dependent on the type of ECM protein coating the wall of the microtiter plate and also the tumor cell type involved.

Another experiment in a line: Estrogen fetotoxicity. Further details: concentration or dose not given beside the values. The settings on record: in vivo.

Consider `CC[C@H](C)[C@H](NC(=O)[C@@H]1CSSC[C@H](NC(=O)[C@H](C)NC(=O)[C@H](CC(C)C)NC(=O)[C@H](CC(C)C)NC(=O)[C@H](CCCCN)NC(=O)[C@H](CC(=O)O)NC(=O)[C@H](CCC(=O)O)NC(=O)[C@H](CO)NC(=O)[C@@H](N)CC(C)C)C(=O)NCC(=O)N[C@@H](CCC(=O)O)C(=O)NCC(=O)N[C@@H](C)C(=O)N[C@@H](C)C(=O)N[C@@H](CC(=O)O)C(=O)N[C@@H]([C@@H](C)CC)C(=O)N[C@@H]([C@@H](C)CC)C(=O)N[C@@H]([C@@H](C)CC)C(=O)NCC(=O)N[C@@H](Cc2c[nH]cn2)C(=O)N[C@@H](CC(C)C)C(=O)N1)C(=O)N[C@@H](CCCNC(=N)N)C(=O)N[C@@H](Cc1c[nH]cn1)C(=O)N[C@@H](CCC(=O)O)C(=O)N[C@@H](CCSC)C(=O)N[C@H](C(=O)N1CCC[C@H]1C(=O)N[C@H](C(=O)N[C@@H](CC(N)=O)C(=O)N1CCC[C@H]1C(=O)NCC(=O)N[C@H](C(=O)O)C(C)C)C(C)C)[C@@H](C)O` [Cyclic GIP] (HELM PEPTIDE1{L.S.E.D.K.L.L.A.C.G.E.G.A.A.D.I.I.I.G.H.L.C.I.R.H.E.M.T.P.V.N.P.G.V}$PEPTIDE1,PEPTIDE1,9:R3-22:R3$$$V2.0; N-terminus and C-terminus assumed), for which the “Inhibition in the in vitro cytostatic assay” value in experiment [1] is listed as 80-90%.
Consider “KDFIHKQGVALQTMKQELINLVKELVKPQIEAVADFSGLL (listed as Homo sapiens) [P192, reference compound]”, for which the “% Inhibition Of Activity: Cell Adhesion” value in experiment [2] is given as 0%. Moreover, in “Estrogen fetotoxicity”, the “% Inhibition Of Activity: Estrogen Fetotoxicty” value stood at 0%.
